From US4374147A, “13-Oxo-monic acid esters useful as antibacterial and antimycoplasmal agents” (Beecham Group Limited, priority 1980, dated 1983)
Converted amounts (≈) assume the structure as drawn.

Experiments:
Staph.aureus Russell = test: MIC by serial dilution in nutrient agar (human bacteria, Table 1); assay type: cell-based; details: Staphylococcus aureus
[1] = system: Neisseria catarrhalis 1502; test: as above; assay type: cell-based; details: 5% "chocolated" horse blood
Strep.pyogenes C 2761 = test: as above; assay type: cell-based; details: Streptococcus pyogenes, C2761, 5% "chocolated" horse blood
Staph.aureus Oxford [2] = test: as above; assay type: cell-based; details: Staphylococcus aureus
[3] = system: Haemophilus influenzae Wy21; test: as above; assay type: cell-based; details: 5% "chocolated" horse blood
E.coli ESS = test: as above; assay type: cell-based; details: Escherichia coli, 5% "chocolated" horse blood
Bacillus subtilis 6633 = test: as above; assay type: cell-based; details: 5% "chocolated" horse blood
Ps. aeruginosa 10662 = test: as above; assay type: cell-based; details: Pseudomonas aeruginosa, 5% "chocolated" horse blood
M.hyorhinis ATCC 23234 = test: Anti-mycoplasmal MIC in Friis broth solidified with agarose (Table 3); assay type: cell-based; details: Mesomycoplasma hyorhinis, ATCC23234, 144 h, 6 days, 37° C., read-out: in vitro MIC
Protocol: (§1) ^+ Determined in Friis broth solidified with 0.9% agarose. The
(§2) inoculum was 10^3 to 10^5 C.F.U. MIC's were recorded after 6 days

[4] = system: M.suipneumoniae J2206/183b; test: as above; assay type: cell-based; details: Mesomycoplasma hyopneumoniae, 144 h, 6 days, 37° C., read-out: in vitro MIC
Protocol: as §1, §2

M.bovis NCTC 10131 = test: as above; assay type: cell-based; details: NCTC10131, 144 h, read-out: in vitro MIC
Protocol: as §1, §2

M.suipneumoniae Str.11 = test: as above; assay type: cell-based; details: Mesomycoplasma hyopneumoniae, 144 h, 6 days, 37° C., read-out: in vitro MIC
Protocol: as §1, §2

M.hyosynoviae ATCC 25591 = test: as above; assay type: cell-based; details: 144 h, 6 days, 37° C., read-out: in vitro MIC
Protocol: as §1, §2

M.dispar NCTC 10125 = test: as above; assay type: cell-based; details: 144 h, 6 days, 37° C., read-out: in vitro MIC
Protocol: as §1, §2

[5] = system: M.pneumoniae (Mac) ATCC 15492; test: as above; assay type: cell-based; details: Mycoplasmoides pneumoniae, ATCC15492, 144 h, 6 days, 37° C., read-out: in vitro MIC
Protocol: as §1, §2

Staph. aureus W2827 = test: MIC by serial dilution in nutrient agar (human bacteria, Table 1, footnote b); assay type: cell-based; details: Staphylococcus aureus, Staph. aureus W2827 (footnote b, in line Staph.aureus 1517), 5% "chocolated" horse blood
[6] = system: Haemophilus influenzae Q1; test: MIC by serial dilution in nutrient agar (human bacteria, Table 1); assay type: cell-based; details: Haemophilus influenzae Q1; nutrient agar, 5% "chocolated" horse blood; read-out: MIC
Strep.pneumoniae CN33 = test: as above; assay type: cell-based; details: Streptococcus pneumoniae, 5% "chocolated" horse blood
[7] = system: Pasteurella multocida 1633; test: as above; assay type: cell-based; details: Pasteurella multocida 1633; nutrient agar, 5% "chocolated" horse blood; read-out: MIC
Strep.pyogenes B 2788 = test: as above; assay type: cell-based; details: Streptococcus pyogenes, B2788, 5% "chocolated" horse blood
Strep.faecalis I = test: as above; assay type: cell-based; details: Enterococcus faecalis, 5% "chocolated" horse blood
Strep.pyogenes A 64/848 = test: as above; assay type: cell-based; details: Streptococcus pyogenes, A64/848, 5% "chocolated" horse blood
K. aerogenes A = test: as above; assay type: cell-based; details: Klebsiella aerogenes, 5% "chocolated" horse blood
E.coli NCTC 10418 [8] = test: as above; assay type: cell-based; details: Escherichia coli, NCTC10418, 5% "chocolated" horse blood
P. mirabilis 889 = test: as above; assay type: cell-based; details: Proteus mirabilis, 5% "chocolated" horse blood
Strep.dysgalactiae SPD1 = test: MIC by agar dilution (veterinary bacteria, Table 2); assay type: cell-based; details: Streptococcus dysgalactiae, diagnostic sensitivity test agar, 24 hours, 37° C.
Protocol: (§3) The MIC values were determined by agar dilution using diagnostic sensitivity test agar (Oxoid) using a multipoint inoculator delivering 0.001 ml of an inoculum adjusted to give 10^7 -10^8 organisms per ml and read after 24 hours incubation at 37° C.

[9] = system: Staph.aureus 152 (pen sens); test: as above; assay type: cell-based; details: Staphylococcus aureus, diagnostic sensitivity test agar, 24 hours, 37° C.
Protocol: as §3

Past.multocida PA2 = test: as above; assay type: cell-based; details: Pasteurella multocida, diagnostic sensitivity test agar, 24 hours, 37° C.
Protocol: as §3

Bord.bronchiseptica BO8 = test: as above; assay type: cell-based; details: Bordetella bronchiseptica, diagnostic sensitivity test agar, 24 hours, 37° C.
Protocol: as §3

Past.multocida PA1 = test: as above; assay type: cell-based; details: Pasteurella multocida, diagnostic sensitivity test agar, 24 hours, 37° C.
Protocol: as §3

Strep.agalactiae SPA1 = test: as above; assay type: cell-based; details: Streptococcus agalactiae, diagnostic sensitivity test agar, 24 hours, 37° C.
Protocol: as §3

Strep.uberis SPU1 = test: as above; assay type: cell-based; details: Streptococcus uberis, diagnostic sensitivity test agar, 24 hours, 37° C.
Protocol: as §3

[10] = system: Strep.suis (group D) SPS11; test: as above; assay type: cell-based; details: Streptococcus suis, diagnostic sensitivity test agar, 24 hours, 37° C.
Protocol: as §3

E.coli NCTC 10418 [11] = test: as above; assay type: cell-based; details: Escherichia coli, NCTC10418, diagnostic sensitivity test agar, 24 hours, 37° C.
Protocol: as §3

Past.haemolytica PA5 = test: as above; assay type: cell-based; details: Mannheimia haemolytica, diagnostic sensitivity test agar, 24 hours, 37° C.
Protocol: as §3

[12] = system: Staph.aureus B4 (pen resis); test: as above; assay type: cell-based; details: Staphylococcus aureus, diagnostic sensitivity test agar, 24 hours, 37° C.
Protocol: as §3

Bord.bronchiseptica BO9 = test: as above; assay type: cell-based; details: Bordetella bronchiseptica, diagnostic sensitivity test agar, 24 hours, 37° C.
Protocol: as §3

Staph.aureus Oxford [13] = test: as above; assay type: cell-based; details: Staphylococcus aureus, diagnostic sensitivity test agar, 24 hours, 37° C.
Protocol: as §3

[14] = system: Erysipelothrix rhusiopathiae NCTC 8163; test: as above; assay type: cell-based; details: NCTC8163, diagnostic sensitivity test agar, 24 hours, 37° C.
Protocol: as §3

E.coli E1 = test: as above; assay type: cell-based; details: Escherichia coli, diagnostic sensitivity test agar, 24 hours, 37° C.
Protocol: as §3

[15] = system: Corynebacterium pyogenes CY1; test: as above; assay type: cell-based; details: Trueperella pyogenes, diagnostic sensitivity test agar, 24 hours, 37° C.
Protocol: as §3

S.typhimurium S18 = test: as above; assay type: cell-based; details: Salmonella enterica, diagnostic sensitivity test agar, 24 hours, 37° C.
Protocol: as §3

S.dublin S7 = test: as above; assay type: cell-based; details: Salmonella enterica, diagnostic sensitivity test agar, 24 hours, 37° C.
Protocol: as §3

[16] = system: Gram-positive and Gram-negative organisms; details: disclosed in earlier patents; cited from earlier work
mycoplasma organisms = details: disclosed in earlier patents; cited from earlier work

CCOC(=O)C=C(C)CC1OCC(CC2OC2C(C)C(C)=O)C(O)C1O (stereo not shown) [Example 5, Ethyl 4-(5-(2,3-epoxy-4-methylhexan-5-onyl)-3,4-dihydroxytetrahydropyran-2-yl)-3-methylbut-2-enoate]
MIC (Staph.aureus Russell): 5 µg/mL (≈ 13.5 µM) | MIC [1]: 2.5 µg/mL (≈ 6.75 µM) | MIC (Strep.pyogenes C 2761): 100 µg/mL (≈ 270 µM) | MIC (Staph.aureus Oxford [2]): 5 µg/mL (≈ 13.5 µM) | MIC [3]: 1 µg/mL (≈ 2.7 µM) | MIC (E.coli ESS): 10 µg/mL (≈ 27 µM) | MIC (Bacillus subtilis 6633): 10 µg/mL (≈ 27 µM) | MIC (Ps. aeruginosa 10662): > 100 µg/mL | MIC (M.hyorhinis ATCC 23234): 5 µg/mL (≈ 13.5 µM) | MIC [4]: 5 µg/mL (≈ 13.5 µM) | MIC (M.bovis NCTC 10131): 0.1 µg/mL (≈ 0.27 µM) | MIC (M.suipneumoniae Str.11): 2.5 µg/mL (≈ 6.75 µM) | MIC (M.hyosynoviae ATCC 25591): 2.5 µg/mL (≈ 6.75 µM) | MIC (M.dispar NCTC 10125): 1 µg/mL (≈ 2.7 µM) | MIC [5]: > 10 µg/mL | MIC (Staph. aureus W2827): 5 µg/mL (≈ 13.5 µM) | MIC [6]: 1 µg/mL (≈ 2.7 µM) | MIC (Strep.pneumoniae CN33): 10 µg/mL (≈ 27 µM) | MIC [7]: 10 µg/mL (≈ 27 µM) | MIC (Strep.pyogenes B 2788): 50 µg/mL (≈ 135 µM) | MIC (Strep.faecalis I): > 100 µg/mL | MIC (Strep.pyogenes A 64/848): 50 µg/mL (≈ 135 µM) | MIC (K. aerogenes A): > 100 µg/mL | MIC (E.coli NCTC 10418 [8]): > 100 µg/mL | MIC (P. mirabilis 889): 100 µg/mL (≈ 270 µM) | MIC (Strep.dysgalactiae SPD1): 20 µg/mL (≈ 54 µM) | MIC [9]: 0.625 µg/mL (≈ 1.69 µM) | MIC (Past.multocida PA2): 0.625 µg/mL (≈ 1.69 µM) | MIC (Bord.bronchiseptica BO8): > 80 µg/mL | MIC (Past.multocida PA1): 2.5 µg/mL (≈ 6.75 µM) | MIC (Strep.agalactiae SPA1): 20 µg/mL (≈ 54 µM) | MIC (Strep.uberis SPU1): 2.5 µg/mL (≈ 6.75 µM) | MIC [10]: > 80 µg/mL | MIC (E.coli NCTC 10418 [11]): > 80 µg/mL | MIC (Past.haemolytica PA5): 10 µg/mL (≈ 27 µM) | MIC [12]: 0.625 µg/mL (≈ 1.69 µM) | MIC (Bord.bronchiseptica BO9): 80 µg/mL (≈ 216 µM) | MIC (Staph.aureus Oxford [13]): 0.625 µg/mL (≈ 1.69 µM) | MIC [14]: > 80 µg/mL | MIC (E.coli E1): > 80 µg/mL | MIC [15]: > 80 µg/mL | MIC (S.typhimurium S18): > 80 µg/mL | MIC (S.dublin S7): > 80 µg/mL

CC(=CC(=O)OCCCCCCCCC(=O)O)CC1OCC(CC2OC2C(C)C(C)O)C(O)C1O (stereo not shown) [Pseudomonic acid]
antibacterial activity [16]: having antibacterial activity

C/C(=C\C(=O)O)CC1OCC(CC2OC2C(C)C(C)O)C(O)C1O (stereo not shown) [monic acid A]
anti-mycoplasmal activity (mycoplasma organisms): does not appear to have antibacterial or anti-mycoplasmal activity | antibacterial activity [16]: does not appear to have antibacterial or anti-mycoplasmal activity
